Where two headings read alike, the source gives them in different places.
Key:
[1] = target: T1, Recombinant Human TMPRSS2 (Homo sapiens, UniProt O15393); test: TMPRSS2 biochemical assay with pre-incubation of inhibitor and enzyme; conditions: for inhibition at 2.788 pM: concentration 0.00278767 nM; for inhibition at 8.363 pM: concentration 0.00836301 nM; for inhibition at 25.09 pM: concentration 0.025089 nM; for inhibition at 75.27 pM: concentration 0.0752671 nM; for inhibition at 0.000225801 µM: concentration 0.225801 nM; for inhibition at 0.000677404 µM: concentration 0.677404 nM; for inhibition at 0.00203221 µM: concentration 2.03221 nM; for inhibition at 0.00609663 µM: concentration 6.09663 nM; for inhibition at 0.0182899 µM: concentration 18.2899 nM; for inhibition at 0.0548697 µM: concentration 54.8697 nM; for inhibition at 0.164609 µM: concentration 164.609 nM; for inhibition at 0.493827 µM: concentration 493.827 nM; for inhibition at 1.48148 µM: concentration 1481.48 nM; for inhibition at 4.44444 µM: concentration 4444.44 nM; for inhibition at 13.3333 µM: concentration 13333.3 nM; for inhibition at 40 µM: concentration 40000 nM
T1 construct: human TMPRSS2 residues 106492, N-terminal 6x His-tag; 6x His-tag (N); purchased Cusabio CSB-YP023924HU; host or cells: yeast
Experimental: To that was dispensed TMPRSS2 (5 µl, 0.018 mg/ml) in assay buffer (50 mM Tris pH 8, 150 mM NaCl, 0.01% Tween20) using a BioRAPTR (Beckman Coulter) to give a total reaction volume of 5 µl. […] The final assay conditions are 10 µM peptide, 0.018 mg/ml TMPRSS2 in assay buffer (50 mM Tris-HCl, pH 8, 150 mM NaCl, 0.01% Tween20).
After incubation at room temperature for 1 h, fluorescence was measured. […] Raw plate reads for each titration point were normalized relative to a positive control containing no enzyme (0% activity, full inhibition) and a negative control containing DMSO-only wells (100% activity, basal activity). Data normalization was performed using GraphPad Prism (GraphPad Software, San Diego, CA).
We employed the curve fitting algorithm available in the SciPy package (version 1.10.1)[61] to derive the Hill slope and the IC50 value, along with their corresponding error estimates.
To model the relationship between the pre-incubation time and the IC50, we use the following equation inspired by the Morse potential:3 ft,a,D,te=D⋅1−exp−a⋅t−te^2 where t is the time, a is the width of the well, D is the IC50 at infinite time (depth of the well) and te is the time at which the IC50 reaches its minimum. Again, we made use of SciPy’s curve fitting method to obtain parameters a, D and te, with their respective error estimates.

[2] = system: vesicular stomatitis virus (VSV); assay type: cell-based; conditions: for mean log10(PFU/ml): VSV
[3] = system: pseudovirus bearing S protein of HCoV-NL63; test: organism not typed; assay type: cell-based
[4] = system: pseudoviruses carrying diverse coronavirus S proteins; assay type: cell-based
[5] = Calu-3, read-out: mean inhibition

T1 sequence (O15393 106-492 limits assumed): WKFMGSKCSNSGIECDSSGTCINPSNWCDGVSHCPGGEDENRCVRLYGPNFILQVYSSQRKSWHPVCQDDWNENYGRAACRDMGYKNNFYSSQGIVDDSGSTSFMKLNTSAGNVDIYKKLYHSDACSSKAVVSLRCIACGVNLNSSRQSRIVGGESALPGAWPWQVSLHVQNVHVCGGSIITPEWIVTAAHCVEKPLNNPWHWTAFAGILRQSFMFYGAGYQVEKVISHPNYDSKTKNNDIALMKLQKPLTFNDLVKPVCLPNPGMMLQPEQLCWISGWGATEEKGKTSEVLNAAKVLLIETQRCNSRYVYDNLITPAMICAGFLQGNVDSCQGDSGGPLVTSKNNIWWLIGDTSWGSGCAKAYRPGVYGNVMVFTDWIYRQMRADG

CC(C)(C)NC(=O)N1CCN(C(=O)N2C(=O)C(CCCNC(=N)N)C2C(=O)O)CC1 (centres unmarked) [BMS-262084]
fold IC50 relative to camostat and nafamostat ([1]; after 48 h of pre-incubation): 5 fold | inhibition at 2.788 pM ([1]; pre-incubation 0): -15.1% | inhibition at 8.363 pM ([1]; pre-incubation 0): -14.4% | inhibition at 25.09 pM ([1]; pre-incubation 0): -2.55% | inhibition at 75.27 pM ([1]; pre-incubation 0): 9.07% | inhibition at 0.000225801 µM ([1]; pre-incubation 0): 39.6% | inhibition at 0.000677404 µM ([1]; pre-incubation 0): 61.8% | inhibition at 0.00203221 µM ([1]; pre-incubation 0): 83.9% | inhibition at 0.00609663 µM ([1]; pre-incubation 0): 90.2% | inhibition at 0.0182899 µM ([1]; pre-incubation 0): 93.8% | inhibition at 0.0548697 µM ([1]; pre-incubation 0): 94.7% | inhibition at 0.164609 µM ([1]; pre-incubation 0): 96.7% | inhibition at 0.493827 µM ([1]; pre-incubation 0): 97.7% | inhibition at 1.48148 µM ([1]; pre-incubation 0): 98.2% | inhibition at 4.44444 µM ([1]; pre-incubation 0): 98% | inhibition at 13.3333 µM ([1]; pre-incubation 0): 101% | inhibition at 40 µM ([1]; pre-incubation 0): 100% | inhibition at 2.788 pM ([1]; pre-incubation 1): 9.6% | inhibition at 8.363 pM ([1]; pre-incubation 1): 9.83% | inhibition at 25.09 pM ([1]; pre-incubation 1): 32.2% | inhibition at 75.27 pM ([1]; pre-incubation 1): 60.8% | inhibition at 0.000225801 µM ([1]; pre-incubation 1): 90% | inhibition at 0.000677404 µM ([1]; pre-incubation 1): 96.9% | inhibition at 0.00203221 µM ([1]; pre-incubation 1): 97.1% | inhibition at 0.00609663 µM ([1]; pre-incubation 1): 97.8% | inhibition at 0.0182899 µM ([1]; pre-incubation 1): 97.1% | inhibition at 0.0548697 µM ([1]; pre-incubation 1): 97.8% | inhibition at 0.164609 µM ([1]; pre-incubation 1): 97.6% | inhibition at 0.493827 µM ([1]; pre-incubation 1): 98.2% | inhibition at 1.48148 µM ([1]; pre-incubation 1): 99.5% | inhibition at 4.44444 µM ([1]; pre-incubation 1): 100% | inhibition at 13.3333 µM ([1]; pre-incubation 1): 101% | inhibition at 40 µM ([1]; pre-incubation 1): 102% | inhibition at 2.788 pM ([1]; pre-incubation 4): 5.94% | inhibition at 8.363 pM ([1]; pre-incubation 4): 11.2% | inhibition at 25.09 pM ([1]; pre-incubation 4): 52.1% | inhibition at 75.27 pM ([1]; pre-incubation 4): 87.4% | inhibition at 0.000225801 µM ([1]; pre-incubation 4): 99.5% | inhibition at 0.000677404 µM ([1]; pre-incubation 4): 99.4% | inhibition at 0.00203221 µM ([1]; pre-incubation 4): 99.5% | inhibition at 0.00609663 µM ([1]; pre-incubation 4): 99.5% | inhibition at 0.0182899 µM ([1]; pre-incubation 4): 99.8% | inhibition at 0.0548697 µM ([1]; pre-incubation 4): 99.8% | inhibition at 0.164609 µM ([1]; pre-incubation 4): 100% | inhibition at 0.493827 µM ([1]; pre-incubation 4): 100% | inhibition at 1.48148 µM ([1]; pre-incubation 4): 101% | inhibition at 4.44444 µM ([1]; pre-incubation 4): 101% | inhibition at 13.3333 µM ([1]; pre-incubation 4): 103% | inhibition at 40 µM ([1]; pre-incubation 4): 102% | inhibition at 2.788 pM ([1]; pre-incubation 8): 25.7% | inhibition at 8.363 pM ([1]; pre-incubation 8): 29.7% | inhibition at 25.09 pM ([1]; pre-incubation 8): 84.9% | inhibition at 75.27 pM ([1]; pre-incubation 8): 109% | inhibition at 0.000225801 µM ([1]; pre-incubation 8): 113% | inhibition at 0.000677404 µM ([1]; pre-incubation 8): 114% | inhibition at 0.00203221 µM ([1]; pre-incubation 8): 114% | inhibition at 0.00609663 µM ([1]; pre-incubation 8): 116% | inhibition at 0.0182899 µM ([1]; pre-incubation 8): 115% | inhibition at 0.0548697 µM ([1]; pre-incubation 8): 116% | inhibition at 0.164609 µM ([1]; pre-incubation 8): 116% | inhibition at 0.493827 µM ([1]; pre-incubation 8): 116% | inhibition at 1.48148 µM ([1]; pre-incubation 8): 118% | inhibition at 4.44444 µM ([1]; pre-incubation 8): 119% | inhibition at 13.3333 µM ([1]; pre-incubation 8): 118% | inhibition at 40 µM ([1]; pre-incubation 8): 118% | inhibition at 2.788 pM ([1]; pre-incubation 18): 20.8% | inhibition at 8.363 pM ([1]; pre-incubation 18): 24.6% | inhibition at 25.09 pM ([1]; pre-incubation 18): 83.1% | inhibition at 75.27 pM ([1]; pre-incubation 18): 92.8% | inhibition at 0.000225801 µM ([1]; pre-incubation 18): 95.2% | inhibition at 0.000677404 µM ([1]; pre-incubation 18): 95.6% | inhibition at 0.00203221 µM ([1]; pre-incubation 18): 98.1% | inhibition at 0.00609663 µM ([1]; pre-incubation 18): 98.2% | inhibition at 0.0182899 µM ([1]; pre-incubation 18): 99.5% | inhibition at 0.0548697 µM ([1]; pre-incubation 18): 101% | inhibition at 0.164609 µM ([1]; pre-incubation 18): 102% | inhibition at 0.493827 µM ([1]; pre-incubation 18): 103% | inhibition at 1.48148 µM ([1]; pre-incubation 18): 102% | inhibition at 4.44444 µM ([1]; pre-incubation 18): 103% | inhibition at 13.3333 µM ([1]; pre-incubation 18): 104% | inhibition at 40 µM ([1]; pre-incubation 18): 105% | inhibition at 2.788 pM ([1]; pre-incubation 24): 45.1% | inhibition at 8.363 pM ([1]; pre-incubation 24): 50.8% | inhibition at 25.09 pM ([1]; pre-incubation 24): 105% | inhibition at 75.27 pM ([1]; pre-incubation 24): 110% | inhibition at 0.000225801 µM ([1]; pre-incubation 24): 114% | inhibition at 0.000677404 µM ([1]; pre-incubation 24): 114% | inhibition at 0.00203221 µM ([1]; pre-incubation 24): 114% | inhibition at 0.00609663 µM ([1]; pre-incubation 24): 115% | inhibition at 0.0182899 µM ([1]; pre-incubation 24): 116% | inhibition at 0.0548697 µM ([1]; pre-incubation 24): 115% | inhibition at 0.164609 µM ([1]; pre-incubation 24): 116% | inhibition at 0.493827 µM ([1]; pre-incubation 24): 116% | inhibition at 1.48148 µM ([1]; pre-incubation 24): 117% | inhibition at 4.44444 µM ([1]; pre-incubation 24): 117% | inhibition at 13.3333 µM ([1]; pre-incubation 24): 117% | inhibition at 40 µM ([1]; pre-incubation 24): 117% | inhibition at 2.788 pM ([1]; pre-incubation 48): 32.3% | inhibition at 8.363 pM ([1]; pre-incubation 48): 30.9% | inhibition at 25.09 pM ([1]; pre-incubation 48): 88.5% | inhibition at 75.27 pM ([1]; pre-incubation 48): 93.1% | inhibition at 0.000225801 µM ([1]; pre-incubation 48): 95.9% | inhibition at 0.000677404 µM ([1]; pre-incubation 48): 96.1% | inhibition at 0.00203221 µM ([1]; pre-incubation 48): 94.8% | inhibition at 0.00609663 µM ([1]; pre-incubation 48): 94.5% | inhibition at 0.0182899 µM ([1]; pre-incubation 48): 96.1% | inhibition at 0.0548697 µM ([1]; pre-incubation 48): 96.3% | inhibition at 0.164609 µM ([1]; pre-incubation 48): 97.7% | inhibition at 0.493827 µM ([1]; pre-incubation 48): 99.7% | inhibition at 1.48148 µM ([1]; pre-incubation 48): 101% | inhibition at 4.44444 µM ([1]; pre-incubation 48): 105% | inhibition at 13.3333 µM ([1]; pre-incubation 48): 109% | inhibition at 40 µM ([1]; pre-incubation 48): 112% | effect on VSV infection [2]: not affected | mean log10(PFU/ml) ([2]; concentration 5 nM): 9.0266 log10(PFU/ml) | mean log10(PFU/ml) ([2]; concentration 50 nM): 9.0323 log10(PFU/ml) | mean log10(PFU/ml) ([2]; concentration 500 nM): 9.005 log10(PFU/ml) | mean log10(PFU/ml) ([2]; concentration 5000 nM): 9 log10(PFU/ml) | mean log10(PFU/ml) ([2]; concentration 50000 nM): 9.006 log10(PFU/ml) | IC50 ([3]; Calu-3, read-out: IC50 estimate, pseudovirus cell entry NL63-S): 0.432 ± 0.223 µM | inhibition at 0.00025 µM [3, 5]: -0.475% | inhibition at 0.0025 µM [3, 5]: 8.77% | inhibition at 0.025 µM [3, 5]: 16.9% | inhibition at 0.25 µM [3, 5]: 57.8% | inhibition at 2.5 µM [3, 5]: 66.8% | inhibition at 25 µM [3, 5]: 73.5% | fold more potent than camostat (lower IC50) [4]: ~2 fold | fold more potent than camostat (lower IC50) ([4]; SARS-CoV-2 lineages B.1, B.1.617.2, EG.5.1, BA.2.86, Calu-3 cells): 3–8 fold
